PMC8044163, “Vitamin D and lumisterol derivatives can act on liver X receptors (LXRs)” (Scientific Reports, 2021)

What was measured:
[1] = molecular target: T1, LBD of LXRβ (Homo sapiens, UniProt P55055); experiment: LanthaScreen TR-FRET LXRβ coactivator assay (LXR binding assay); assay type: biochemical; details: agonist; average values; read-out: LXRβ EC50
T1 construct: purchased Thermo Fisher Scientific
T1 sequence (P55055 222-460 limits assumed): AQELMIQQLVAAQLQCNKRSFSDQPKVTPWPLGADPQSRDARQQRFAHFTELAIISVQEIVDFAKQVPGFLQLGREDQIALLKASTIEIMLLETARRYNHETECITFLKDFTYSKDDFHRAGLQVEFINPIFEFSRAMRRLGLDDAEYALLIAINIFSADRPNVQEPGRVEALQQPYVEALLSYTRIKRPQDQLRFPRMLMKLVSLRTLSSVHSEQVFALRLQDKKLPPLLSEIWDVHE
Experimental: (§1) Binding assays of graded concentrations of vitamin D3 or lumisterol hydroxyderivatives to LXRα/β were performed using the LanthaScreen TR-FRET LXRα/β Coactivator kit (Thermo Fisher Scientific, Inc., Waltham, MA) following the manufacture’s protocol. Briefly, after addition of LXRα/β-LBD to the derivatives, a mixture of peptide (Fluorescein-TRAP220/DRIP-2 for LXRα or Fluorescein-D22 for LXRβ) and antibody (Tb-anti-GST) was added to the reaction followed by incubation in room temperature for 2 h. TR-FRET ratio was calculated by dividing the emission at 520 nm by the emission at 495 nm using Synergy neo2 (BioTek, Winooski, VT).

[2] = tested on: LXR-response element (LXRE)-driven reporter in CHO cells; experiment: LXRE-driven luciferase reporter assay in CHO cells; assay type: cell-based; details: 10^–7 M, CHO and HaCaT cells (Fig. 4C)
Experimental: The effects of vitamin D3 and L3 hydroxyderivatives were tested on the LXRE transcriptional activity using pGreenFire1-LXRE-in-ApoE Lentivirus (System Biosciences, Palo Alto, CA). This plasmid was transduced in CHO and HaCaT cells following the manufacture’s protocol and the cells used as a stable LXRE expressed tool. Briefly, the virus was transduced into the cells using TransDux MAX Lentivirus Transduction Enhancer (System Biosciences, Palo Alto, CA) and screened to select the transduced cells using puromycin. The transduced cells were treated with the compounds for 24 h in media containing 5% cFBS (charcoal-treated fetal bovine serum) and the luminescence was read by ONE-Glo Luciferase Assay System (Promega, Madison, WI) using Cytation 5 (BioTek, Winooski, VT).

[3] = molecular target: T2, LBD of LXRα (Homo sapiens, UniProt Q13133); experiment: LanthaScreen TR-FRET LXRα coactivator assay (LXR binding assay); assay type: biochemical; details: agonist; average values; read-out: LXRα EC50
T2 construct: after addition of LXRα/β-LBD to the derivatives; purchased Thermo Fisher Scientific
T2 sequence (Q13133 209-447 limits assumed): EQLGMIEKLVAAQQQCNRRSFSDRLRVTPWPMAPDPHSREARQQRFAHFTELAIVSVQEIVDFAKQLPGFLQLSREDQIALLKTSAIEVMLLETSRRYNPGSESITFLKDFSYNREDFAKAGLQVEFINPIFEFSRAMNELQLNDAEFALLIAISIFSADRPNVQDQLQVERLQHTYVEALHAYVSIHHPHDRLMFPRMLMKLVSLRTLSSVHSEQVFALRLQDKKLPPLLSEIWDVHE
Experimental: as §1

[4] = molecular target: T3, VDR (Homo sapiens, UniProt P11473); experiment: Translocation of VDR to the nucleus, imaging flow cytometry in HaCaT; assay type: cell-based; details: 10^–7 M, 12 h
T3 construct: endogenous in cells; host or cells: HaCaT keratinocytes
T3 sequence (P11473 1-427): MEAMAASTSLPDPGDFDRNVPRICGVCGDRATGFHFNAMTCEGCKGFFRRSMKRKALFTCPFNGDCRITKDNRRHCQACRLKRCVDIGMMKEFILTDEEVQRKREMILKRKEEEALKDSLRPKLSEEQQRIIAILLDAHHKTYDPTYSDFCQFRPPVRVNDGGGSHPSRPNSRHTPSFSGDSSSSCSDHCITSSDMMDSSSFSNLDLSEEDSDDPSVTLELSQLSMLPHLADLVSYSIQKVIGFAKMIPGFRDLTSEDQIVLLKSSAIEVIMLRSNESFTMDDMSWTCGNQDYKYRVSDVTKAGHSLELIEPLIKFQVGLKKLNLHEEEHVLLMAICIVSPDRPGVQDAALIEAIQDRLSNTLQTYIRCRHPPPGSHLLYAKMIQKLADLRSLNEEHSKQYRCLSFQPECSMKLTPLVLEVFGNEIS

[5] = tested on: LXRα/β; experiment: Ligand induced translocation of LXRα/β to the nucleus, imaging flow cytometry in HaCaT; assay type: cell-based, human; details: 10^–7 M, 12 h
Experimental: (§2) HaCaT cells were plated in DMEM plus 5% cFBS either on a sterile glass cover slip placed in a well of a 6-well plates for immunofluorescence (IF) assays or TPP Petri dishes for image-stream flow cytometry, and treated with 10^–7 M D3- or L3-hydroxyderivatives or 0.1% ethanol (vehicle) as a negative control was added to each well, and the cells were incubated for 12 or 24 h at 37 °C with 5% CO2. For IF the cells were fixed in 4% paraformaldehyde for 15 min, incubated in 0.5% Triton X-100 in phosphate-buffered saline (PBS) for 5 min, and washed 3 times in PBS. After blocking with 2% bovine serum albumin (BSA) in PBS for 1 h at room temperature, the cells were treated with an anti-LXRα antibody (Novus Biologicals, LLC, Centennial, CO) at 1:200 in PBS supplemented with 2% BSA overnight in 4 °C. After washing the slides were incubated with a mouse anti-rabbit IgG-FITC (Santa Cruz Biotechnology, Inc, Dallas, TX) at 1:200 dilution for 1.5 h at 37 °C. After washing the slides were mounted using propidium iodide (PI) (Vector Labs, Burlingame, California) as a nuclear counterstain. The slides were examined using a KEYENCE America BZ-X710 Fluorescence Microscope (Itasca, IL). The images were subsequently analyzed using the JACoP plugin for colocalization analysis with ImageJ[74]. Five separate high-power field (40×) images were converted to grayscale and analyzed for each condition. Manders’ coefficient (M1), calculated using a preset threshold, was used to quantify the degree of colocalization between PI and LXRα with 0 representing no colocalization, and 1 representing perfect colocalization.
For Image Stream II (Amnis, Seattle, WA, USA) cytometer analyses, HaCaT cells were detached and processed as previously described. The cells were fixed with paraformaldehyde and permeabilized in methanol containing buffer[78],[79] and Hoechst stain (r37165, ThermoFisher) and rabbit antibodies to LXRα/β (sc 377260, AF 647, SantaCruz) or VDR (sc-13133, AF 488, SantaCruz) as described previously. Data were analyzed using IDEAS software (Amnis, Seattle, WA, USA).

[6] = molecular target: T4, LXRα (Homo sapiens, UniProt Q13133); experiment: Ligand induced translocation of LXRα to the nucleus, immunofluorescence in HaCaT; assay type: cell-based; details: 10^−7 M, 24 h
T4 construct: endogenous in cells; host or cells: HaCaT keratinocytes
T4 sequence (Q13133 1-447): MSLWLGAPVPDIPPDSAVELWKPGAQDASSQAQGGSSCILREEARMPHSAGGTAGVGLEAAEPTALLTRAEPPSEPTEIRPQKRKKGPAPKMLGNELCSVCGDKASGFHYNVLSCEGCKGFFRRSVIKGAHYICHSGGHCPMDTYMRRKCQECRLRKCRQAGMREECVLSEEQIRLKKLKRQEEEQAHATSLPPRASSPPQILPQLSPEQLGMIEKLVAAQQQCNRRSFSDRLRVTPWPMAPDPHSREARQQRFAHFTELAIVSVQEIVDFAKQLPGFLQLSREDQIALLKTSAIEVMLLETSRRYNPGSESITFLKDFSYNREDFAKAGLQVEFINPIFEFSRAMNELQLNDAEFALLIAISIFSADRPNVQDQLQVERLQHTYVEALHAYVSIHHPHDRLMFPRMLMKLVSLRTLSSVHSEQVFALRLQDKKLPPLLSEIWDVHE
Experimental: as §2

[7] = tested on: genes downstream of LXR; experiment: qPCR of genes downstream of LXR in murine dermal fibroblasts; assay type: cell-based, mouse; details: 10^–7 M, 24 h
Experimental: All animal studies followed guidelines outlined by the NIH Guide for the Care and Use of Laboratory Animals and protocols were approved by the Institutional Animal Care and Use Committee at the NIEHS or the UAB. The study was carried out in compliance with the ARRIVE guidelines (http://www.nc3rs.org.uk/page.asp?id=1357). Skin samples from newborn C57BL/6 mice were collected at the NIEHS. Dermal fibroblasts were isolated from the skin of newborn mice, 1–2 day old. Briefly, we followed the protocols described previously. The skin was washed in PBS, cut into smaller pieces and incubated in 2.4 U/ml of dispase II (Roche) overnight at 4 °C. The dermis was separated from the epidermis and incubated in 0.1% collagenase (Roche) at 4 °C overnight. Next day, it was cut into smaller pieces and incubated for 1 h in 0.25% Trypsin (CellGrow) at 37 °C. Single cell suspension was prepared by pipetting and draining through a cell strainer. After centrifugation, cell pellets were suspended in DMEM medium containing 10% charcoal-stripped fetal bovine serum (cFBS), mouse fibroblasts growth factor (FGF) and 1% antibiotic, and inoculated into tissue culture dishes (Midwest Scientific, TPP). Cells, in early passages, from different mice were pooled together to provide representative samples for experiments. Fibroblasts were cultured in Petri dishes (10 cm in diameter) in DMEM and 10% cFBS and triplicate semi-confluent cultures were treated as described.
RNA isolated from either fibroblasts, HaCaT cells or brain was submitted for cDNA synthesis (High Capacity cDNA Reverse Transcription Kit with RNase Inhibitor, Applied Biosystems) following the manufacturers’ protocols. RT-PCR was carried out using Cyber green, in triplicates; as previously described. Approximately, 750 ng of cDNA was used for PCR reactions. GAPDH and CIC-B were used as internal controls. Primer sequences are listed in Supplementary Table 27. Data were analyzed using GraphPad Prism statistical software one way ANOVA or t-test, where appropriate; *p < 0.05; **p < 0.01; ***p < 0.001.

Structure (SMILES) | EC50 [1] [nM] | EC50 [3] [nM] | also measured
C=C1C(=CC=C2CCCC3(C)C2CCC3C(C)(O)CCCC(C)(C)O)CC(O)CC1O (stereo not shown) [1,20,25(OH)3D3] | 3.8 | – | LXRE luciferase (transcriptional) activity [2]: strongest stimulatory effects
CC(CCCC(C)(C)O)[C@H]1CC[C@H]2C3=CC=C4C[C@@H](O)CC[C@@]4(C)[C@@H]3CC[C@]12C (stereo partly shown) [25(OH)L3] | 1900 | 140 | –
CC(CC[C@H](O)C(C)C)[C@H]1CC[C@H]2C3=CC=C4C[C@@H](O)CCC4(C)[C@@H]3CC[C@]12C (stereo partly shown) [24(OH)L3] | 1300 | 3600 | –
CC(C)CCC[C@@H](C)[C@H]1CC[C@H]2C3=CC=C4C[C@@H](O)CC[C@@]4(C)[C@@H]3CC[C@]12C [L3, lumisterol] | 110 | 250 | –
C[C@H](CO)CCC[C@@H](C)[C@H]1CC[C@H]2C3=CC=C4C[C@@H](O)CC[C@@]4(C)[C@@H]3CC[C@]12C [(25S)-27(OH)L3] | 1.3 | 26 | –
CC(C)CCC(O)C(C)(O)C1CCC2C3=CC=C4CC(O)CCC4(C)C3CCC21C (stereo not shown) [20,22(OH)2L3] | 2000 | 1500 | translocation of VDR from the cytoplasm to the nucleus [4]: increased translocation; translocation of LXRα/β from the cytoplasm to the nucleus [5]: increased translocation; translocation of LXRα to the nucleus (immunofluorescence, Manders' coefficient) [6]: induced translocation
CC(C)CCC[C@](C)(O)[C@H]1CC[C@H]2C3=CC=C4C[C@@H](O)CC[C@@]4(C)[C@@H]3CC[C@@]21C [20(OH)L3] | 21 | 1800 | translocation of VDR from the cytoplasm to the nucleus [4]: increased translocation; Abca1 expression [7]: inhibited; Abcg8 expression [7]: inhibited; ApoE (apolipoprotein E) expression [7]: inhibited; Cyp7a1 expression [7]: inhibited; Lpl (lipoprotein lipase) expression [7]: inhibited; translocation of LXRα/β from the cytoplasm to the nucleus [5]: increased translocation; translocation of LXRα to the nucleus (immunofluorescence, Manders' coefficient) [6]: induced translocation
